Among the data in PMC3340383, “Synthesis and Evaluation of a Series of 2-Substituted-5-Thiopropylpiperazine (Piperidine)-1,3,4-Oxadiazoles Derivatives as Atypical Antipsychotics” (PLoS ONE, 2012) are Ki and melting point values, retold here.

Molecules are shown by their SMILES. Where two headings read alike, the source gives them in different places.

In one series the target is T1, dopamine D2 receptor (Rattus norvegicus, UniProt P61169).
T1 construct: Rat striatum was homogenized in 20 volumes of ice-cold 50 mM Tris-HCl buffer; from tissue; host or cells: rat striatum
T1 sequence (P61169 whole entry): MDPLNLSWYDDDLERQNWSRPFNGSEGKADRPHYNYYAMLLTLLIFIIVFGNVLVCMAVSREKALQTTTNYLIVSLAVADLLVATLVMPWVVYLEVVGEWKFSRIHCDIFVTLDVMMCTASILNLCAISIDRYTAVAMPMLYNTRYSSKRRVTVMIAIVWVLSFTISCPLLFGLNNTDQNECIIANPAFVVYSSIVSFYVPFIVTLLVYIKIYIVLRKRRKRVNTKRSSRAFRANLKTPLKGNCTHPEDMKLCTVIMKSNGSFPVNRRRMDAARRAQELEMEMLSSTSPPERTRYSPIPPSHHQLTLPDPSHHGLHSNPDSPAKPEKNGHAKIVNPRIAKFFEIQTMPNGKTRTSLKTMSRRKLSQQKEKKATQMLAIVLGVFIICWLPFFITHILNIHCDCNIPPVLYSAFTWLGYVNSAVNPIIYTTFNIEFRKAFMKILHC
The experiment in a line: D2 dopaminergic binding assay ([3H]spiperone, rat striatum). Conditions: read-out: Ki±SEM, D2. Here is the method: (§1) All the new compounds were dissolved in 5% DMSO. The following specific radioligands and tissue sources were used: (a) serotonin 5-HT1A receptor, [^3H]8-OH-DPAT, rat brain cortex; (b) serotonin 5-HT2A receptor, [^3H]ketanserin, rat brain cortex; (c) serotonin 5-HT2C receptor, [^3H]mesulergine, rat brain cortex; (d) dopamine D2 receptor, [^3H]spiperone, rat striatum; (e) dopamine D3 receptor, [^3H]spiperone, rat olfactory tubercle (f) histamine H1 receptor, [^3H] pyrilamine, guinea pig cerebellum.
(§2) Total binding was determined in the absence of no-specific binding and compounds. Specific binding was determined in the presence of compounds. Non-specific binding was determined as the difference between total and specific binding.
(§3) Percentage of inhibition (%) = (total binding − specific binding)×100%/(total binding − nonspecific binding).
(§4) Ki values were calculated based on the Cheng and Prussoff equation: Ki = IC50/(1+C/Kd) where C represents the concentration of the hot ligand used and Kd its receptor dissociation constant were calculated for each labeled ligand. Mean Ki values and SEM were reported for at least three independent experiments.
Rat striatum was homogenized in 20 volumes of ice-cold 50 mM Tris-HCl buffer (pH 7.7) using an ULTRA TURAX homogeniser, and centrifuged twice for 10 min at 48,000 g with resuspension of the pellet in fresh buffer. The final pellet was resuspended in 50 mM ice-cold Tris-HCl containing 120 mM NaCl, 5 mM KCl, 2 mM CaCl2, 1 mM MgCl2, 0.1% ascorbic acid and 5 µM pargyline.
Total binding each assay tube was added 900 µL of the tissue suspension, 50 µL of 0.5 nM [^3H]spiperone (16.2 Ci/mmol; Perkin Elmer Life Sciences, Boston, MA, USA), 50 µL Tris-HCl buffer containing 120 mM NaCl, 5 mM KCl, 2 mM CaCl2, 1 mM MgCl2, 0.1% ascorbic acid and 5 µM pargyline.
Non-specific binding each assay tube was added 900 µL of the tissue suspension, 50 µL of 0.5 nM [^3H]spiperone, 50 µL of 10 µM (+)-butaclamol.
Specific binding each assay tube was added 900 µL of the tissue suspension, 50 µL of 0.5 nM [^3H]spiperone, 50 µL of new compounds or reference drug.
(§5) The incubation was followed by a rapid vacuum filtration through Whatman GF/B glass filters, and the filtrates were washed twice with 5 mL cold buffer and transferred to scintillation vials. Scintillation fluid (3.0 mL) was added and the radioactivity bound was measured using a Beckman LS 6500 liquid scintillation counter.

The target in series [1] is T2, serotonin 5-HT2A receptor (Rattus norvegicus, UniProt P14842).
T2 construct: Rat cerebral cortex was homogenized in 20 volumes of ice-cold Tris-HCl buffer; from tissue; host or cells: rat brain (cerebral) cortex
T2 sequence (P14842 whole entry): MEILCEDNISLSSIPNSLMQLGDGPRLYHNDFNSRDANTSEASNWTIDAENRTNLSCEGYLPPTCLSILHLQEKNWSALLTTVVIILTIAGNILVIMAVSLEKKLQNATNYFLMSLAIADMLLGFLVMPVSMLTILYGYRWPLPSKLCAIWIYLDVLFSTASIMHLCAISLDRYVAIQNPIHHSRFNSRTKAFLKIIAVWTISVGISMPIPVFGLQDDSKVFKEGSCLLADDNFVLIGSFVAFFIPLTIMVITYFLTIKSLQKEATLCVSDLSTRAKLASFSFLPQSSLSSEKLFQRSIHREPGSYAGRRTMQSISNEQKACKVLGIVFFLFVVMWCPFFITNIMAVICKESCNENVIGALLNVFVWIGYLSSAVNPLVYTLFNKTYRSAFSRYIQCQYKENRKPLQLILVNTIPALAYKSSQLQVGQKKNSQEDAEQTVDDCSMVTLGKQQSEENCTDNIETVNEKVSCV
Briefly: 5-HT2A binding assay ([3H]ketanserin, rat brain cortex). Conditions: read-out: Ki±SEM, 5HT2A. Here is the method: as §1, §2, §3, §4
Rat cerebral cortex was homogenized in 20 volumes of ice-cold Tris-HCl buffer (50 mM, pH 7.7) using an ULTRA TURAX homogeniser, and centrifuged at 32000 g for 20 min. The resulting pellet was resuspended in the same quantity of the buffer centrifuged for 20 min. The final pellet was resuspended in 50 volumes of the Tris-HCl buffer.
Total binding each assay tube was added 900 µL of the tissue suspension, 50 µL of 0.6 nM [^3H]ketanserin (60.0 Ci/mmol, Perkin Elmer Life Sciences, Boston, MA, USA), 50 µL Tris-HCl buffer.
Non-specific binding each assay tube was added 900 µL of the tissue suspension, 50 µL of 0.6 nM [^3H]ketanserin, 50 µL of 10 µM methisergide.
Specific binding each assay tube was added 900 µL of the tissue suspension, 50 µL of 0.6 nM [^3H]ketanserin, […] of new compounds or reference drug.
as §5

Series [2] has as its target T3, serotonin 5-HT1A receptor (Rattus norvegicus, UniProt P19327).
T3 construct: Rat cerebral cortex was homogenized in 20 volumes of ice-cold Tris-HCl buffer; from tissue; host or cells: rat brain (cerebral) cortex
T3 sequence (P19327 1-422): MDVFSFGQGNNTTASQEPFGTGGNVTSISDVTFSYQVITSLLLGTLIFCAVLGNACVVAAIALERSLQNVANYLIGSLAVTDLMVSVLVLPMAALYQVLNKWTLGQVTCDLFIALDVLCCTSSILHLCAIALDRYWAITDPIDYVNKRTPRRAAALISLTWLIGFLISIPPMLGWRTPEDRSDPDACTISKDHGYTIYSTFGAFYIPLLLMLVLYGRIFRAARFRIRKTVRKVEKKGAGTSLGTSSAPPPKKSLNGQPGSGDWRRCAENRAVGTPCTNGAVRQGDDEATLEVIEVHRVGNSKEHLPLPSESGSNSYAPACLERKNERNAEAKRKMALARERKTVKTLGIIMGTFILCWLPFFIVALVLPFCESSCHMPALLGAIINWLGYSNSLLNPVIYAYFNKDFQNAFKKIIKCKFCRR
The experiment in a line: 5-HT1A binding assay ([3H]8-OH-DPAT, rat brain cortex). Conditions: read-out: Ki±SEM, 5HT1A. Here is the method:
as §1, §2, §3, §4
Rat cerebral cortex was homogenized in 20 volumes of ice-cold Tris-HCl buffer (50 mM, pH 7.7) using an ULTRA TURAX homogeniser, and was then centrifuged at 32000 g for 10 min. […] The final pellet was resuspended in Tris-HCl buffer containing 10 µM Pargyline, 4 mM CaCl2 and 0.1% ascorbic acid.
Total binding each assay tube was added 900 µL of the tissue suspension, 50 µL of 0.5 nM [^3H]8-OH-DPAT (187.4 Ci/mmol, Perkin Elmer Life Sciences, Boston, MA, USA), 50 µL Tris-HCl buffer containing 10 µM Pargyline, 4 mM CaCl2 and 0.1% ascorbic acid.
Non-specific binding each assay tube was added 900 µL of the tissue suspension, 50 µL of 0.5 nM [^3H]8-OH-DPAT, 50 µL of 10 µM serotonin.
Specific binding each assay tube was added 900 µL of the tissue suspension, 50 µL of 0.5 nM [^3H]8-OH-DPAT, 50 µL of new compounds or reference drug.
The incubation was followed by a rapid vacuum filtration through Whatman GF/B glass filters, and the filtrates were washed twice with 5mL cold buffer and transferred to scintillation vials. Scintillation fluid (3.0 mL) was added and the radioactivity bound was measured using a Beckman LS 6500 liquid scintillation counter.

[3] abbreviates: [3H]spiperone, rat striatum, mean of three experiments, >10000 marked b: Ki not calculated, inhibition at 10 µM too low.
Setting [4] is: [3H]ketanserin, rat brain cortex, mean of three experiments, >10000 marked b: Ki not calculated, inhibition at 10 µM too low.
[5] abbreviates: [3H]8-OH-DPAT, rat brain cortex, mean of three experiments, >10000 marked b: Ki not calculated, inhibition at 10 µM too low.

The term Ki denotes the dissociation constant of the complex between target and ligand, obtained from inhibition or displacement. As usually defined, the melting point is the temperature of the solid-liquid transition. `Cc1cccc(N2CCN(CCCSc3nnc(-c4ccccc4)o3)CC2)c1C` [Compound 7, 2-((3-(4-(2,3-dimethylphenyl)piperazin-1-yl)propyl)thio)-5-phenyl-1,3,4-oxadiazole] yielded a melting point of 86 to 88 °C. In addition, the Ki on dopamine D2 receptor is > 10000 nM. For the same compound, in series [1], the Ki turned out to be 374 ± 33 nM. The Ki in series [2] is > 10000 nM.
As to `c1ccc2c(-c3nnc(SCCCN4CCN(c5nsc6ccccc56)CC4)o3)cccc2c1` [Compound 21, 2-(3-(4-(benzo[d]isothiazol-3-yl)piperazin-1-yl)propylthio)-5-(naphthalen-1-yl)-1,3,4-oxadiazole], the results for the inhibition constant Ki (on dopamine D2 receptor (setting [3]); in series [1] (setting [4]); in series [2] (setting [5])) were 138 ± 13.6 nM, 114 ± 12.1 nM and 346 ± 35.9 nM, respectively.
For `Fc1ccc2c(C3CCN(CCCSc4nnc(-c5ccc(C(F)(F)F)cc5)o4)CC3)noc2c1` [Compound 18, 2-(3-(4-(6-fluorobenzo[d]isoxazol-3-yl)piperidin-1-yl)propylthio)-5-(4-(trifluoromethyl)phenyl)-1,3,4-oxadiazole], the melting point is 122 to 124 °C. The Ki at dopamine D2 receptor stood at 94.5 ± 8.9 nM. For the same compound, the Ki in series [1] came to 24.7 ± 2.8 nM. Also, the Ki in series [2] came out at 51 ± 4.9 nM.
Take `Fc1ccc2c(C3CCN(CCCSc4nnc(-c5cccs5)o4)CC3)noc2c1` [Compound 24, 2-(3-(4-(6-fluorobenzo[d]isoxazol-3-yl)piperidin-1-yl)propylthio)-5-(thiophen-2-yl)-1,3,4-oxadiazole]: the Ki on dopamine D2 receptor (setting [3]) is 91 ± 11.2 nM; in series [1] (setting [4]) it was 50.3 ± 6.5 nM; in series [2] (setting [5]), 96.6 ± 10.3 nM.
Turning to `COc1ccc(-c2nnc(SCCCN3CCN(c4nsc5ccccc45)CC3)o2)cc1` [Compound 13, 2-((3-(4-(benzo[d]isothiazol-3-yl)piperazin-1-yl)propyl)thio)-5-(4-methoxyphenyl)-1,3,4-oxadiazole], the Ki on dopamine D2 receptor (setting [3]) is 96.7 ± 9.5 nM; in series [1] (setting [4]) it was 17.2 ± 1.6 nM; in series [2] (setting [5]) it was > 10000 nM.
Regarding `Fc1ccc(-c2nnc(SCCCN3CCN(c4nsc5ccccc45)CC3)o2)cc1` [Compound 19, 2-(3-(4-(benzo[d]isothiazol-3-yl)piperazin-1-yl)propylthio)-5-(4-fluorophenyl)-1,3,4-oxadiazole], the Ki (on dopamine D2 receptor (setting [3]); in series [1] (setting [4]); in series [2] (setting [5])) was > 10000 nM in each case.
`c1ccc2c(N3CCN(CCCSc4nnc(-c5ccncc5)o4)CC3)nsc2c1` [Compound 25, 2-(3-(4-(benzo[d]isothiazol-3-yl)piperazin-1-yl)propylthio)-5-(pyridin-4-yl)-1,3,4-oxadiazole] gave a melting point of 93 to 94 °C. Also, the Ki at dopamine D2 receptor was > 10000 nM. Also, the Ki in series [1] turned out to be 390 ± 36.5 nM. Further, in series [2], the Ki was > 10000 nM.
Take `Fc1ccc(-c2nnc(SCCCN3CCC(c4noc5cc(F)ccc45)CC3)o2)cc1` [Compound 20, 2-(3-(4-(6-fluorobenzo[d]isoxazol-3-yl)piperidin-1-yl)propylthio)-5-(4-fluorophenyl)-1,3,4-oxadiazole]: the values for the Ki (at dopamine D2 receptor (setting [3]); in series [1] (setting [4]); in series [2] (setting [5])) were 125 ± 12.4 nM, 15.8 ± 1.3 nM and 14.8 ± 1.5 nM, respectively.
`Fc1ccc2c(C3CCN(CCCSc4nnc(-c5ccncc5)o4)CC3)noc2c1` [Compound 26, 2-(3-(4-(6-fluorobenzo[d]isoxazol-3-yl)piperidin-1-yl)propylthio)-5-(pyridin-4-yl)-1,3,4-oxadiazole]: the Ki on dopamine D2 receptor (setting [3]) was 260 ± 32.1 nM; in series [1] (setting [4]) it was 59.2 ± 7.6 nM; in series [2] (setting [5]), 60.6 ± 8.6 nM.
The compound `c1ccc(-c2nnc(SCCCN3CCN(c4nsc5ccccc45)CC3)o2)cc1` [Compound 11, 2-((3-(4-(benzo[d]isothiazol-3-yl)piperazin-1-yl)propyl)thio)-5-phenyl-1,3,4-oxadiazole] had a melting point of 69 to 71 °C. Further, the Ki on dopamine D2 receptor was 2570 ± 321 nM. Besides, the Ki in series [1] was found to be 61.4 ± 5.8 nM. For the same compound, the Ki in series [2] stood at 19 ± 2.3 nM.
Turning to `COc1ccccc1N1CCN(CCCSc2nnc(-c3ccccc3)o2)CC1` [Compound 8, 2-((3-(4-(2-methoxyphenyl)piperazin-1-yl)propyl)thio)-5-phenyl-1,3,4-oxadiazole], the Ki (on dopamine D2 receptor; in series [1]; in series [2]) was > 10000 nM throughout.
`FC(F)(F)c1ccc(-c2nnc(SCCCN3CCN(c4nsc5ccccc45)CC3)o2)cc1` [Compound 17, 2-((3-(4-(benzo[d]isothiazol-3-yl)piperazin-1-yl)propyl)thio)-5-(4-(trifluoromethyl)phenyl)-1,3,4-oxadiazole]: the figures for the Ki (at dopamine D2 receptor (setting [3]); in series [1] (setting [4]); in series [2] (setting [5])) were 487 ± 46.3 nM, 50.8 ± 5.3 nM and > 10000 nM, respectively.
`Clc1cccc(N2CCN(CCCSc3nnc(-c4ccccc4)o3)CC2)c1Cl` [Compound 9, 2-((3-(4-(2,3-dichlorophenyl)piperazin-1-yl)propyl)thio)-5-phenyl-1,3,4-oxadiazole] gave a melting point of 82 to 84 °C. Further, the Ki on dopamine D2 receptor is > 10000 nM. Further, the Ki in series [1] was > 10000 nM. In addition, the Ki in series [2] is > 10000 nM.
With `c1csc(-c2nnc(SCCCN3CCN(c4nsc5ccccc45)CC3)o2)c1` [Compound 23, 2-(3-(4-(benzo[d]isothiazol-3-yl)piperazin-1-yl)propylthio)-5-(thiophen-2-yl)-1,3,4-oxadiazole], the Ki on dopamine D2 receptor (setting [3]) was > 10000 nM; in series [1] (setting [4]), 54.1 ± 6.9 nM; in series [2] (setting [5]) it was 450 ± 49.8 nM.
For the compound `Clc1ccc(-c2nnc(SCCCN3CCN(c4nsc5ccccc45)CC3)o2)cc1` [Compound 15, 2-((3-(4-(benzo[d]isothiazol-3-yl)piperazin-1-yl)propyl)thio)-5-(4-chlorophenyl)-1,3,4-oxadiazole], the inhibitory constant (Ki) on dopamine D2 receptor (setting [3]) was 126 ± 13.5 nM; in series [1] (setting [4]) it was 27.2 ± 2.8 nM; in series [2] (setting [5]) it was 14.2 ± 1.3 nM.
